This note sets out measurements from PubChem BioAssay (NCI).

Among the test systems are BT-549 breast; HCT-116 colon; HL-60(TB) leukemia; HOP-62 NSCLC; HT29 colon; MALME-3M melanoma; MOLT-4 leukemia; RPMI-8226 leukemia; SF-539 CNS; SW-620 colon.
What all share (assay): growth of human tumour cells (NCI), 48 h

Molecules are shown by their SMILES. Several values for one entry are separate records, joined by “and”; a condition that tells them apart may be missing. Identical values can stand only once.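 Each compound was tested at five concentrations against cells in 96-well plates for 48 hours. Here, GI50 denotes the concentration required for 50% inhibition of growth. Definition used: TGI = concentration required for complete inhibition of growth.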

Turning to `COc1ccc2[nH]c(O)c(C(=Nc3ccc(N(C)C(=O)CN4CCN(C)CC4)cc3)c3ccccc3)c2c1`, the GI50 with BT-549 breast is 1550 nM; in the test with HCT-116 colon it was 562 nM; in the test on HL-60(TB) leukemia it was 880 nM; in the test on HOP-62 NSCLC, 1120 nM; with HT29 colon it was 341 nM; in the test on MALME-3M melanoma, 1270 nM. The GI50 in the test on MOLT-4 leukemia was 1450 nM; with RPMI-8226 leukemia, 2500 nM; in the test on SF-539 CNS, 1040 nM; in the test on SW-620 colon, 1780 nM. For the same compound, the TGI in the test with BT-549 breast was found to be 3.19 µM; in the test on HCT-116 colon it was 8.37 µM; in the test on HL-60(TB) leukemia, 2.86 µM; in the test on HOP-62 NSCLC, 12.3 µM; in the test on HT29 colon, 10.8 µM; with MALME-3M melanoma, 2.85 µM. Also, the TGI in the test with MOLT-4 leukemia worked out at 4.99 µM; in the test with RPMI-8226 leukemia, 7.53 µM; in the test on SF-539 CNS, 2.27 µM; with SW-620 colon it was 11.4 µM.

For `C=CC(=O)Nc1cc2c(Nc3ccc(F)c(Cl)c3)ncnc2cc1OCCCN1CCOCC1`, the GI50 is 2040 nM and 2570 nM in the test with BT-549 breast; 1580 nM and 2350 nM with HCT-116 colon; 2000 nM and 1730 nM in the test with HL-60(TB) leukemia; 3270 nM and > 5630 nM in the test with HOP-62 NSCLC; 1640 nM and 2260 nM in the test on HT29 colon; 2410 nM and 6170 nM in the test on MALME-3M melanoma. The GI50 is 1850 nM and 2870 nM with MOLT-4 leukemia; 1940 nM and 2750 nM with RPMI-8226 leukemia; 1580 nM and 3890 nM in the test with SF-539 CNS; 1810 nM and 2620 nM with SW-620 colon. Further, the TGI in the test on BT-549 breast is 5.7 µM and > 7.88 µM; with HCT-116 colon, 3 µM and > 5.9 µM; in the test with HL-60(TB) leukemia, 4.88 µM and 7.33 µM; in the test on HOP-62 NSCLC, 13.9 µM and > 10 µM; in the test with HT29 colon it was 3.48 µM and > 8.38 µM; in the test with MALME-3M melanoma it was 5.84 µM and > 10 µM. Moreover, the TGI in the test on MOLT-4 leukemia is 5.18 µM and > 9.25 µM; in the test on RPMI-8226 leukemia, 5.17 µM and > 10 µM; in the test on SF-539 CNS, 3.5 µM and > 10 µM; in the test on SW-620 colon it was 3.59 µM and > 6.13 µM.

On to `CCn1c2ccc(O)cc2c2c(C)c3c[n+](C)ccc3c(C)c21`, for which the GI50 with BT-549 breast was 1550 nM; with HCT-116 colon it was 4550 nM; in the test with HL-60(TB) leukemia, 40800 nM; in the test with HOP-62 NSCLC, 1180 nM; in the test with HT29 colon it was 13200 nM; with MALME-3M melanoma it was 1320 nM. Further, the GI50 was 2060 nM in the test on MOLT-4 leukemia, 7430 nM with RPMI-8226 leukemia, 873 nM in the test on SF-539 CNS and 3850 nM in the test with SW-620 colon. Also, the TGI with BT-549 breast is 8.29 µM; in the test on HCT-116 colon, > 100 µM; with HL-60(TB) leukemia, > 100 µM; with HOP-62 NSCLC, 21 µM; in the test on HT29 colon it was > 100 µM; in the test on MALME-3M melanoma, 7.12 µM. Further, the TGI with MOLT-4 leukemia was 95.1 µM; in the test with RPMI-8226 leukemia, 68 µM; with SF-539 CNS it was 14.8 µM; with SW-620 colon it was > 100 µM.

Turning to `CC[PH+](CC)CC.O=COC1OC([S-])C(OC=O)C(OC=O)C1OC=O.[Au+]` (stereo not given), the GI50 in the test with BT-549 breast is 1250 nM; in the test on HCT-116 colon, 1560 nM; with HL-60(TB) leukemia, 2600 nM; with HOP-62 NSCLC it was 1580 nM; in the test on HT29 colon, 1650 nM; in the test on MALME-3M melanoma, 1240 nM. Besides, the GI50 in the test on MOLT-4 leukemia was 2200 nM; in the test on RPMI-8226 leukemia, 1350 nM; in the test with SF-539 CNS, 1140 nM; with SW-620 colon, 1850 nM. Besides, the TGI is 2.54 µM in the test with BT-549 breast; 3.15 µM in the test on HCT-116 colon; 6.6 µM with HL-60(TB) leukemia; 3.2 µM in the test with HOP-62 NSCLC; 5.3 µM in the test on HT29 colon; 2.58 µM in the test with MALME-3M melanoma. The TGI with MOLT-4 leukemia was 7.61 µM; in the test on RPMI-8226 leukemia, 5.07 µM; in the test with SF-539 CNS it was 2.37 µM; in the test on SW-620 colon, 3.83 µM.

Take `CCn1c(-c2nonc2N)nc2c(C#CC(C)(C)O)nc(OCCNC)cc21`: the GI50 is 7170 nM in the test with BT-549 breast; 7140 nM in the test on HCT-116 colon; 7780 nM in the test with HL-60(TB) leukemia; 7810 nM in the test with HOP-62 NSCLC; 6210 nM with HT29 colon; 7690 nM with MALME-3M melanoma. The GI50 was 8680 nM in the test with MOLT-4 leukemia, 9490 nM in the test with RPMI-8226 leukemia, 6110 nM in the test with SF-539 CNS and 6680 nM in the test on SW-620 colon. Besides, the TGI was > 22.1 µM in the test with BT-549 breast; > 21.6 µM in the test on HCT-116 colon; 18.2 µM with HL-60(TB) leukemia; > 25 µM in the test with HOP-62 NSCLC; 13.8 µM in the test with HT29 colon; 20.6 µM in the test with MALME-3M melanoma. Moreover, the TGI in the test with MOLT-4 leukemia was > 25 µM; with RPMI-8226 leukemia, > 25 µM; in the test on SF-539 CNS, 20.7 µM; in the test on SW-620 colon, > 25 µM.

For the compound `COc1ccc(C2=NN(C=O)C(c3cccc(Nc4ccnc5cc(Cl)ccc45)c3)C2)cc1` (stereo not given), the GI50 in the test with BT-549 breast was 1930 nM; in the test with HCT-116 colon it was 1840 nM; in the test with HL-60(TB) leukemia it was 2030 nM; with HOP-62 NSCLC, 2110 nM; in the test with HT29 colon it was 1650 nM; in the test on MALME-3M melanoma it was 2040 nM. Moreover, the GI50 is 2370 nM with MOLT-4 leukemia, 1360 nM in the test on RPMI-8226 leukemia, 2340 nM in the test on SF-539 CNS and 1730 nM in the test with SW-620 colon. The TGI in the test on BT-549 breast came to 9.87 µM; in the test with HCT-116 colon, 6.02 µM; with HL-60(TB) leukemia it was 4.91 µM; in the test on HOP-62 NSCLC, 16.6 µM; in the test on HT29 colon, 9.7 µM; in the test on MALME-3M melanoma, 18.9 µM. In addition, the TGI in the test on MOLT-4 leukemia stood at 11.9 µM; in the test on RPMI-8226 leukemia it was 11.2 µM; in the test on SF-539 CNS, 7.41 µM; with SW-620 colon it was 13.2 µM.

Take `COc1cc(-c2cn(-c3ccc(Cl)c(Cl)c3)c(=O)n2C(C)=O)cc(OC)c1OC`: the GI50 in the test with BT-549 breast was 10700 nM; in the test on HCT-116 colon, 13700 nM; with HL-60(TB) leukemia, 14200 nM; in the test on HOP-62 NSCLC, 7480 nM; in the test with HT29 colon it was 6320 nM; with MALME-3M melanoma it was 15300 nM. Also, the GI50 in the test on MOLT-4 leukemia is 14700 nM; with RPMI-8226 leukemia, 10500 nM; in the test on SF-539 CNS it was 2070 nM; in the test with SW-620 colon, 12900 nM. The TGI was 22.7 µM with BT-549 breast; 27.9 µM with HCT-116 colon; 33.9 µM in the test with HL-60(TB) leukemia; 21.1 µM in the test on HOP-62 NSCLC; 21.8 µM in the test on HT29 colon; 33.3 µM in the test on MALME-3M melanoma. Also, the TGI in the test with MOLT-4 leukemia is 31.6 µM; in the test with RPMI-8226 leukemia it was 32.3 µM; in the test with SF-539 CNS, 4.29 µM; in the test with SW-620 colon, 29.8 µM.
